# Experimental data as given in patent publication US20080200475A1 (Pfizer Inc., priority 2005, published 2008).
# Values joined by “and” are separate entries in the source; they are usually repeats but may differ in a detail not shown here. Identical values can stand only once.
# Molecular target: T1, Human P2Y12 (Homo sapiens, UniProt Q9H244)
# T1 construct: expressed in transfected cells; host or cells: HEK cells (membrane preparation)
# Experiment: [^33P]-2MeS-ADP Binding to Recombinant Human P2Y12 Membranes (Assay 3)
# Settings: for IC50 / Ki: membranes of HEK cells transfected with P2Y12, competition with ^33P 2MeS-ADP, multiple lines = multiple runs; for inhibition at 1 µM: highest concentration tested 1 μM
# Description: 3. Human P2Y12 Recombinant Cell Membrane Binding Assay with ^33P 2MeS-ADP.
# The ability of a test compound to bind to the P2Y12 receptor was evaluated in a recombinant cell membrane binding assay. In this competitive binding assay, the test compound competed against a radiolabelled agonist for binding to the P2Y12 receptor, expressed on the cell membrane. Inhibition of binding of the labeled material was measured and correlated to the amount and potency of the test compound. Data from this assay are presented in Table F. This binding assay is a modification of the procedure in Takasaki, J. et. al, Mol. Pharmacol., 2001, Vol. 60, pg. 432.
# HEK cells were transfected with the pDONR201P2Y12 vector and cultured in MEM with GlutaMAX I, Earle's salts, 25 mM HEPES (Gibco #42360-032) containing 10% dialyzed FBS (Gibco #26400-044), 100 μM nonessential amino acids (Gibco #11140-050), 1 mM sodium pyruvate (Gibco #11360-070), 0.05% geneticin (Gibco #10131-027), 3 μg/mL blasticidin (Fluka brand from Sigma #15205), and 0.5 μg/mL puromycin (Sigma #P-8833).
# Confluent cells were washed once with cold DPBS (Gibco #14190-136). Fresh DPBS was added and the cells were scraped and centrifuged at 500×g for 5 minutes at 4° C. The cell pellets were resuspended in TEE buffer (25 mM Tris, 5 mM EDTA, 5 mM EGTA) containing 1 protease inhibitor cocktail tablet (Roche #1 873 580) per 50 mL (called TEE+Complete) and can be flash frozen at this point.
# In one embodiment, frozen cell pellets were used to prepare the membranes. In that embodiment, the frozen cell pellets were thawed on ice. In another embodiment, cell pellets may be used without flash freezing before moving on to the next step.
# Cell pellets were resuspended in TEE buffer+Complete and homogenized in a glass dounce for 12 strokes. The cell suspension was centrifuged at 500×g for 5 minutes at 4° C. The supernatant was saved and centrifuged at 20,000×g for 20 minutes at 4° C. This supernatant was discarded and the cell pellet resuspended in TEE buffer+Complete and homogenized in a glass dounce for 12 strokes. This suspension was centrifuged at 20,000×g for 20 minutes at 4° C. and the supernatant discarded. The pellet was resuspended in assay buffer (50 mM Tris, 100 mM NaCl, 1 mM EDTA) containing one protease inhibitor cocktail tablet per 50 mL, and can be flash frozen as 1 mL aliquots at this point.
# […] A 1 mM DMSO intermediate stock was made in a dilution plate and from this the seven dilutions were made to 5× the final concentration in assay buffer containing 0.02% BSA.
# To a polypropylene assay plate (Costar #3365) the following were added: a) 30 μL of assay buffer containing one protease inhibitor cocktail tablet per 50 mL; b) 30 μL of 1 nM ^33P 2MeS-ADP made in assay buffer containing 0.02% BSA and 12.5 mg/mL ascorbic acid; 30 μL of cold 1.5 μM 2MeS-ADP for the positive control wells, or assay buffer containing 0.02% BSA and 12.5 mg/mL ascorbic acid for the negative control wells, or 5× drug dilution; and 60 μL of 1 ug/well membranes.
# The plates were incubated at room temperature for 1 hour. The reaction was stopped using a cell harvester to transfer the reaction mixture onto GF/B UniFilter plates (Perkin Elmer #6005177), and washed three times with wash buffer (50 mM Tris), filtering between each wash. The filter plates were dried for approximately 20 minutes in an oven at 50° C. Back seals were adhered to the filter plates and 25 uL of Microscint 20 scintillation fluid (Perkin Elmer #6013621) were added. The filter plates were sealed, shaken for 30 minutes, and counted on a Top Count. Data were analyzed using a four-parameter curve fit with a fixed minimum and maximum experimentally defined as the average positive and negative controls on each plate, and with a hill slope equal to one. […]
# [1] = highest concentration tested 10 μM
# T1 sequence (Q9H244 whole entry): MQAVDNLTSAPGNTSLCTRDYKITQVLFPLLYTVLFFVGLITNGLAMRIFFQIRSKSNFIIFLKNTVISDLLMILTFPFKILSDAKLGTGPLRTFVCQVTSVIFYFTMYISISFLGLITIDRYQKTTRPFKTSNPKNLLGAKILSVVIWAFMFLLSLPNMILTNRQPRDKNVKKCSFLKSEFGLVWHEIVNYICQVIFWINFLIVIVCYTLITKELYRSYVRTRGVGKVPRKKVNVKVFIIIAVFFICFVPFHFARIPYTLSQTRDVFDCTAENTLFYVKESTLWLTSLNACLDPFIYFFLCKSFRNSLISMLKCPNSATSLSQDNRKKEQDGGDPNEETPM
SMILES,inhibition at 10 µM [1] [%],IC50,Ki,"% Inhibition, [^33P]-2MeS-ADP Binding to Recombinant Human P2Y12 Membranes (Assay 3) [1] [%]",inhibition at 1 µM [%]
"CCOC(=O)CNC(=O)Nc1nc(N2CCN(C(=O)c3ccc(-c4ccccc4)cc3)CC2)c2cc(CC)sc2n1 [Example 15, Ethyl N-[({4-[4-(1,1′-biphenyl-4-ylcarbonyl)piperazin-1-yl]-6-ethylthieno[2,3-d]pyrimidin-2-yl}amino)carbonyl]glycinate]",94.5,0.066 µM,0.038 µM,,
"C=C(C)C(=O)OCCNC(=O)Nc1nc(N2CCN(C(=O)c3ccc(-c4ccccc4)cc3)CC2)c2cc(CC)sc2n1 [Example 16, 2-{[({4-[4-(1,1′-Biphenyl-4-ylcarbonyl)piperazin-1-yl]-6-ethylthieno[2,3-d]pyrimidin-2-yl}amino)carbonyl]amino}ethyl 2-methylacrylate]",80.8,0.244 µM,0.14 µM,,
"CCOC(=O)CCNC(=O)Nc1nc(N2CCN(C(=O)c3ccc(-c4ccccc4)cc3)CC2)c2cc(CC)sc2n1 [Example 17, ethyl N-[({4-[4-(1,1′-biphenyl-4-ylcarbonyl)piperazin-1-yl]-6-ethylthieno[2,3-d]pyrimidin-2-yl}amino)carbonyl]-beta-alaninate]",89.9,0.157 µM,0.09 µM,,
"CCc1cc2c(N3CCN(C(=O)c4ccc(-c5ccccc5)cc4)CC3)nc(NC(=O)NCCC(=O)O)nc2s1 [Example 19, N-[({4-[4-(1,1′-Biphenyl-4-ylcarbonyl)piperazin-1-yl]-6-ethylthieno[2,3-d]pyrimidin-2-yl}amino)carbonyl]-beta-alanine]",88,0.006 µM,0.003 µM,,
"CCc1cc2c(N3CCN(C(=O)c4ccc(-c5ccccc5)cc4)CC3)nc(NC(=O)COCc3ccccc3)nc2s1 [Example 27, 2-Benzyloxy-N-{4-[4-(biphenyl-4-carbonyl)piperazin-1-yl]-6-ethylthieno[2,3-d]pyrimidin-2-yl}acetamide]",84,0.204 µM,0.119 µM,,
"CCc1cc2c(N3CCN(C(=O)c4ccc(-c5ccccc5)cc4)CC3)nc(NC(=O)CCNC(=O)OCc3ccccc3)nc2s1 [Example 28, Benzyl(2-{4-[4-(biphenyl-4-carbonyl)piperazin-1-yl]-6-ethylthieno[2,3-d]pyrimidin-2-ylcarbamoyl}ethyl)carbamate]",92.7,0.0381 µM,0.021 µM,,
"CCc1cc2c(N3CCN(C(=O)c4ccc(-c5ccccc5)cc4)CC3)nc(NC(=O)c3cccnc3)nc2s1 [Example 29, N-{4-[4-(Biphenyl-4-carbonyl)piperazin-1-yl]-6-ethylthieno[2,3-d]pyrimidin-2-yl}nicotinamide]",89,0.078 µM,0.043 µM,,
"CCc1cc2c(N3CCN(C(=O)c4ccc(-c5ccccc5)cc4)CC3)nc(NC(=O)C3OC(OC)[C@@H]4OC(C)(C)O[C@H]34)nc2s1 (stereo partly drawn) [Example 31, (7R,8S)-6-Methoxy-2,2-dimethyltetrahydrofuro[3,4-d][1,3]dioxole-4-carboxylic acid{4-[4-(biphenyl-4-carbonyl)piperazin-1-yl]-6-ethylthieno[2,3-d]pyrimidin-2-yl}amide]",76.7,0.345 µM and 0.678 µM,0.189 µM and 0.329 µM,72.4,
"CCc1cc2c(N3CCN(C(=O)c4ccc(-c5ccccc5)cc4)CC3)nc(NC(=O)[C@H](COC(C)(C)C)NC(=O)OCc3ccccc3)nc2s1 [Example 35, Benzyl (1-{4-[4-(biphenyl-4-carbonyl)piperazin-1-yl]-6-ethylthieno[2,3-d]pyrimidin-2-ylcarbamoyl)-2-tert-butoxyethyl)carbamate]",53.9,2.7 µM,1.31 µM,,

# Continued, values first:
inhibition at 10 µM [1] [%],IC50,Ki,"% Inhibition, [^33P]-2MeS-ADP Binding to Recombinant Human P2Y12 Membranes (Assay 3) [1] [%]",inhibition at 1 µM [%],SMILES
95.4,0.0043 µM,0.002 µM,,,"CCc1cc2c(N3CCN(C(=O)c4ccc(-c5ccccc5)cc4)CC3)nc(NC(=O)NCC(=O)O)nc2s1 [Example 18, N-[({4-[4-(1,1′-Biphenyl-4-ylcarbonyl)piperazin-1-yl]-6-ethylthieno[2,3-d]pyrimidin-2-yl}amino)carbonyl]glycine]"
89,0.072 µM,0.047 µM,,,"CCc1cc2c(N3CCN(C(=O)c4ccc(-c5ccccc5)cc4)CC3)nc(NC(=O)NCCCO)nc2s1 [Example 20, N-{4-[4-(1,1′-Biphenyl-4-ylcarbonyl)piperazin-1-yl]-6-ethylthieno[2,3-d]pyrimidin-2-yl}-N′-(3-hydroxypropyl)urea]"
93.2,0.0624 µM,0.036 µM,,,"CCc1cc2c(N3CCN(C(=O)c4ccc(-c5ccccc5)cc4)CC3)nc(NC(=O)COC)nc2s1 [Example 23, N-{4-[4-(Biphenyl-4-carbonyl)piperazin-1-yl]-6-ethylthieno[2,3-d]pyrimidin-2-yl}-2-methoxyacetamide]"
90,0.163 µM,0.089 µM,,,CCc1cc2c(N3CCN(C(=O)c4ccc(-c5ccccc5)cc4)CC3)nc(NC(=O)C(C)C)nc2s1 [Example 24]
91,0.159 µM,0.093 µM,,,"CCc1cc2c(N3CCN(C(=O)c4ccc(-c5ccccc5)cc4)CC3)nc(NC(C)=O)nc2s1 [Example 25, N-{4-[4-(Biphenyl-4-carbonyl)piperazin-1-yl]-6-ethylthieno[2,3-d]pyrimidin-2-yl}acetamide]"
87.9,0.0389 µM,0.021 µM,,,"CCc1cc2c(N3CCN(C(=O)c4ccc(-c5ccccc5)cc4)CC3)nc(NC(=O)c3ccccn3)nc2s1 [Example 33, {4-[4-(Biphenyl-4-carbonyl)piperazin-1-yl]-6-ethylthieno[2,3-d]pyrimidin-2-yl}picolinamide]"
74.8,0.582 µM,0.328 µM,,,"CCc1cc2c(N3CCN(C(=O)c4ccc(-c5ccccc5)cc4)CC3)nc(NC(=O)c3ccncc3)nc2s1 [Example 34, {4-[4-(Biphenyl-4-carbonyl)piperazin-1-yl]-6-ethylthieno[2,3-d]pyrimidin-2-yl}isonicotinamide]"
94,0.067 µM,0.037 µM,,,"CCc1cc2c(N3CCN(C(=O)c4ccc(-c5ccccc5)cc4)CC3)nc(NC(=O)CCO)nc2s1 [Example 36, N-{4-[4-(Biphenyl-4-carbonyl)piperazin-1-yl]-6-ethylthieno[2,3-d]pyrimidin-2-yl}-3-hydroxypropionamide]"
,0.0493 µM,0.024 µM,,84.5,"CCc1cc2c(N3CCN(C(=O)c4ccc(-c5ccccc5)cc4)CC3)nc(NC(=O)CO)nc2s1 [Example 37, N-{4-[4-(Biphenyl-4-carbonyl)piperazin-1-yl]-6-ethylthieno[2,3-d]pyrimidin-2-yl}-b-hydroxyacetamide]"
,0.013 µM,0.008 µM,,88,"CCc1cc2c(N3CCN(C(=O)c4ccc(-c5ccccc5)cc4)CC3)nc(NC(=O)CCC(=O)O)nc2s1 [Example 38, N-{4-[4-(Biphenyl-4-carbonyl)piperazin-1-yl]-6-ethylthieno[2,3-d]pyrimidin-2-yl}succinamic acid]"
81,0.179 µM,0.087 µM,,,"CCc1cc2c(N3CCN(C(=O)c4ccc(-c5ccccc5)cc4)CC3)nc(NC(=O)[C@@H]3CCCN3)nc2s1 [Example 39, (S)-Pyrrolidine-2-carboxylic Acid{4-[4-(Biphenyl-4-carbonyl)piperazin-1-yl]-6-ethylthieno[2,3-d]pyrimidin-2-yl}amide]"
